Key:
healthy subjects [1] = test: Thorough QT study: ECG; conditions: positive control
healthy subjects [2] = test: Safety and tolerability; assay type: in vivo, human; conditions: ITT population, by treatment
[3] = system: patients with type 2 diabetes / healthy subjects; conditions: previous findings; cited from earlier work

Compound	LS mean ΔΔQTcP (two-sided 90% CI) (healthy subjects [1]; 1 h following single 400 mg oral dose)	LS mean ΔΔQTcP (two-sided 90% CI) (healthy subjects [1]; 2 h following single 400 mg oral dose)	LS mean ΔΔQTcP (two-sided 90% CI) (healthy subjects [1]; 3 h following single 400 mg oral dose)	subjects experiencing adverse events (healthy subjects [2]) [%]	changes in QTc at therapeutic concentrations [3]
COc1c(N2C[C@@H]3CCCN[C@@H]3C2)c(F)cc2c(=O)c(C(=O)O)cn(C3CC3)c12 [moxifloxacin]	5.47 (2.82, 8.12) ms	10.56 (8.46, 12.67) ms	10.93 (8.71, 13.13)	23	–
liraglutide	–	–	–	–	no clinically meaningful changes in QTc
